Series [1] has as its system OPM-2. Nature of the series: MTT antiproliferative assay, OPM-2. Format: cell-based. As to conditions: Homo sapiens, 72 hours. The protocol:
(§1) Cell viability was monitored by the MTT (3-(4,5-dimethylthiazol-2-yl)-2,5-diphenyltetrazolium bromide) assay. For the MTT assay, cells were suspended at 5 × 10^5 cells/ml, and 100 μl aliquots were dispended into 96-well microtiter plates and exposed to drugs as described using DMSO control. At the end of incubations, 10 μl of a stock solution of 5 mg/ml MTT (3-(4,5-dimethylthiazol-2-yl)-2,5-diphenyltetrazolium bromide), was added into each well, and the plates were incubated 4 hours at 37 °C. Formazan crystals were dissolved with 100 μl of 10% SDS/10 mM HCl solution overnight at 37 °C. Since MTT assays are affected by mitochondrial activity, and since OXPHOS is affected by VLX1570 (unpublished observation), we used the acid phosphatase method[49] to determine cell viability in some experiments. After washing twice with PBS, cells were lysed in 100 μl of 0.1 M sodium acetate, 0,1% Triton X-100, p-nitrophenylphosphate (Pierce Biotechnology Inc, Rockford, IL) and incubated for 90 min at 37 °C. At the end of the incubation, 10 μl NaOH was added to each well and A405 was determined.
For orientation: Formazan colour is commonly taken as a measure of viable cells.

Series [2] concerns OPM-2-BZ^R. Nature of the series: MTT antiproliferative assay, OPM-2-BZR. It counts as cell-based. As to conditions: Homo sapiens, OPM-2-BZ^R (bortezomib resistant), 72 hours. As for the experimental part:
as §1

The subject of series [3] is OPM-2 cells. Nature of the series: 3H-VLX1570 retention after wash-out in OPM-2 cells. Format: cell-based, human. The conditions noted are these: 1 hour exposure, 17 hours in drug-free medium.
Series [4] relates to proteasome DUB activity. Details: method as in PMID 25854145. As to conditions: competitive inhibitor; read-out: IC50, inhibition of proteasome DUB activity in vitro; cited from earlier work.

As usually defined, the IC50 is the concentration needed to halve the response being measured. In the case of `C=CC(=O)N1CC/C(=C\c2ccc(F)c([N+](=O)[O-])c2)C(=O)/C(=C/c2ccc(F)c([N+](=O)[O-])c2)C1` [VLX1570], the IC50 was 126 ± 3 nM in series [1], 191 ± 1 nM in series [2] and approximately 10000 nM in series [4]. The “drug associated with the cells after wash-out” value in series [3] is reported as “Approximately 70%”.

The values above are taken from publication PMC4893612 (Scientific Reports, 2016).
